Patent US12611386B2, “Extended release pharmaceutical formulation” (Douglas Pharmaceuticals Ltd., priority 2020, dated 2026)
Like-named read-outs stand apart in the source and are kept apart here.

Key:
[1] = injected by any route of administration (e.g. Loo 2016); cited from earlier work
[2] = tested on: patients with treatment-resistant depression and/or treatment-resistant anxiety (TRD/TRA); experiment: Study ZPS-603 Cohort 4: mood ratings (HAMA, FQ, MADRS), open label multiple ascending dose; format: in vivo, human; settings: injected drug in earlier treatment (FIG. 7)
Protocol: The objective of Cohort 4 was to evaluate efficacy, safety, PK and PD of an extended release ketamine oral formulation in patients with treatment-resistant depression and/or treatment-resistant anxiety (TRD/TRA). […] The design was an open label multiple ascending dose study. The initial dose was 60 mg, and could be escalated by an additional 60 mg 12 hourly, based on assessment of mood symptoms, to a maximum dose of 240 mg, with a total of 7 doses given 12 hourly between 0 and 72 hours. Endpoints included safety, tolerability, ketamine and norketamine PK, and PD (mood ratings including the Fear Questionnaire (FQ; Marks 1979), HAMA and MADRS, and dissociative symptom rating scale scores).

[3] = tested on: TRD patients; settings: Singh et al. 2016, cited from earlier work

For `CNC1(c2ccccc2Cl)CCCCC1=O` (stereo not shown) [IV ketamine, 2-(2-chlorophenyl)-2-(methylamino)cyclohexan-1-one], the “duration of marked dissociative symptoms after dosing” value [1] is given as “up to 60 minutes”, the “onset of improvement of anxiety symptoms” value [2] is given as 1 to 2 h and the TRD patients remitted ([3]; 0.5 mg/kg IV thrice weekly) is given as 23.1%. The TRD patients remitted ([3]; 0.5 mg/kg IV twice weekly for 15 days) was 37.5%.
